Article PMC6273209, “Evaluation of the Enantiomer Specific Biokinetics and Radiation Doses of [^18F]Fluspidine—A New Tracer in Clinical Translation for Imaging of σ1 Receptors” (Molecules, 2016)
“And” between values parts separate entries of the source, which are not always exact repeats. Identical values can stand only once.

Assay: Human dosimetry estimation from small animal PET/MRI (imaging method)
Format: in vivo, CD-1 mice
Conditions: for OD Adrenals / OD Brain / OD Breasts / OD Gallbladder Wall / OD Heart Wall / OD Kidneys / OD LLI Wall / OD Liver / OD Lungs / OD Muscle / OD Osteogenic Cells / OD Ovaries / OD Pancreas / OD Red Marrow / OD Skin / OD Small Intestine / OD Spleen / OD Stomach Wall / OD Testes / OD Thymus / OD Thyroid / OD Total Body / OD ULI Wall / OD Urinary Bladder Wall / OD Uterus / ED Contr. Adrenals / ED Contr. Brain / ED Contr. Breasts / ED Contr. Gallbladder Wall / ED Contr. Heart Wall / ED Contr. Kidneys / ED Contr. LLI Wall / ED Contr. Liver / ED Contr. Lungs / ED Contr. Muscle / ED Contr. Osteogenic Cells / ED Contr. Ovaries / ED Contr. Pancreas / ED Contr. Red Marrow / ED Contr. Skin / ED Contr. Small Intestine / ED Contr. Spleen / ED Contr. Stomach Wall / ED Contr. Testes / ED Contr. Thymus / ED Contr. Thyroid / ED Contr. Total Body / ED Contr. ULI Wall / ED Contr. Urinary Bladder Wall / ED Contr. Uterus: mouse PET/MRI; for OD Adrenals / OD Brain / OD Breasts / OD Gallbladder Wall / OD Heart Wall / OD Kidneys / OD LLI Wall / OD Liver / OD Lungs / OD Muscle / OD Osteogenic Cells / OD Ovaries / OD Pancreas / OD Red Marrow / OD Skin / OD Small Intestine / OD Spleen / OD Stomach Wall / OD Testes / OD Thymus / OD Thyroid / OD Total Body / OD ULI Wall / OD Urinary Bladder Wall / OD Uterus: scaled to human adult male model; for ED Contr. Adrenals / ED Contr. Brain / ED Contr. Breasts / ED Contr. Gallbladder Wall / ED Contr. Heart Wall / ED Contr. Kidneys / ED Contr. LLI Wall / ED Contr. Liver / ED Contr. Lungs / ED Contr. Muscle / ED Contr. Osteogenic Cells / ED Contr. Ovaries / ED Contr. Pancreas / ED Contr. Red Marrow / ED Contr. Skin / ED Contr. Small Intestine / ED Contr. Spleen / ED Contr. Stomach Wall / ED Contr. Testes / ED Contr. Thymus / ED Contr. Thyroid / ED Contr. Total Body / ED Contr. ULI Wall / ED Contr. Urinary Bladder Wall / ED Contr. Uterus / ED: ICRP 103 weighting; for ED ICRP 60 / ED: mouse, imaging (PET/MRI); for ED ICRP 60: ICRP 60 weighting
Method: The animals were initially anesthetized with 4% of isoflurane and were positioned prone in a small-animal PET/MRI system (nanoScan® PET/MRI, MEDISO, Budapest, Hungary) equipped with respiratory monitoring, heated mouse bed (37 °C), and inhalation anesthesia (1.8% isoflurane in a 60% oxygen/40% air gas mixture at 250 mL/min airflow; Anaesthesia Unit U-410, agntho’s, Lidingö, Sweden; Gas blender 100 series, MCQ Instruments, Rome, Italy). Prior to the PET scan, a scout image MR sequence was done to outline the animal dimensions. Female CD-1 mice (age: 12 weeks, weight: 30.9 ± 1.3 g) were injected via the tail vein with (S)-(−)-[^18F]fluspidine (13.2 ± 3.0 MBq; n = 3) or (R)-(+)-[^18F]fluspidine (12.6 ± 1.4 MBq; n = 3) in a volume of 200 μL saline. The injected dose was calculated by the difference of the radioactivity in the syringe before and after the injection. A dynamic whole body animal PET scan of 105 min length (Figure 1) was started simultaneously. This scanning time was chosen to represent the protocol of the human study (after time extrapolation according to Equation (2)) based on a priori biokinetic information from the ex vivo investigation. Following the PET scan, a 20 min T1-weighted whole body MR scan (gradient echo sequence, TR = 20 ms; TE = 3.2 ms) was performed for anatomical orientation after co-registration and attenuation correction at the reconstruction step.
The PET images were iteratively (ordered-subsets expectation maximization, OSEM) reconstructed (preclinical: 4 iterations, 6 subsets; clinical: 4 iterations, 8 subsets) and corrected for decay, randoms, scatter, and dead time, μ-maps for attenuation correction of PET-emission data were derived from the CT or MR [49] structural data, respectively. The PET data were re-binned into 10 time frames (preclinical: 4 × 5 min, 1 × 10 min, and 5 × 15 min; clinical: 4 × 12 min, 3 × 16 min, 1 × 32 min, 1 × 40 min, and 1 × 48 min), and the reconstructed PET/MRI and PET/CT images were co-registered manually with ROVER (ABX, advanced chemical compounds, Radeberg, Germany, version 2.1.17). Quantitative evaluation was performed by drawing volumes of interest (VOI) for brain, gallbladder, large intestine, small intestine, stomach, heart, kidneys, liver, lungs, pancreas, red marrow (backbone, pelvis, sternum), spleen, thyroid, testes, and urinary bladder (Figure S4). The PET derived biokinetic data is expressed as percentage of injected activity (dose) per cubic centimeter (%ID/cm^3).
For human dosimetry estimation from animal biodistribution and PET/MR imaging, animal organ masses and time scale was extrapolated to human magnitudes. At first, the organ-specific animal %ID data were extrapolated to the human scale with the equation (1) %ID/organhuman=%ID/gmouse · morganhuman · mmouse/mhuman with the fraction of the injected activity in the corresponding human organ = %ID/organhuman , the fraction of injected activity per gram animal organ tissue = %ID/gmouse and morganhuman the mass of the corresponding human organ. At second, a time scale extrapolation is needed due to differences in the metabolic rate using the equation (2) thuman=tmouse{mhuman/mmouse}^0.25 including the human time scale = thuman , the animal time scale = tmouse and the ratio of animal and human body weights = mmouse/mhuman .
The human dosimetry estimation was performed with the data extrapolated as well as the genuine human data using OLINDA/EXM software. The time-activity curves were estimated by exponential fitting and calculating the time integral, which equals the number of disintegrations (NODs) per organ during the observation period normalized to 1 Becquerel administered activity dose. […] Therefore, activity data of the urinary bladder was derived from the image for each time point. In contrast, for humans the activity concentration data of the urinary bladder was obtained in a more direct approach. […]

[18F]CC[C@H]1OC2(CCN(Cc3ccccc3)CC2)c2ccccc21 [(R)-(+)-[^18F]fluspidine]
OD values of (R)-(+)-enantiomer relative to (S)-(−)-enantiomer (mice, scaled to human): up to 1.3 fold
OD Adrenals: 11.00 μSv/MBq
OD Brain: 13.20 μSv/MBq
OD Breasts: 6.19 μSv/MBq
OD Gallbladder Wall: 30.10 μSv/MBq
OD Heart Wall: 10.50 μSv/MBq
OD Kidneys: 26.90 μSv/MBq
OD LLI Wall: 13.80 μSv/MBq
OD Liver: 26.10 μSv/MBq
OD Lungs: 10.80 μSv/MBq
OD Muscle: 7.86 μSv/MBq
OD Osteogenic Cells: 14.00 μSv/MBq
OD Ovaries: 11.90 μSv/MBq
OD Pancreas: 24.80 μSv/MBq
OD Red Marrow: 12.80 μSv/MBq
OD Skin: 5.82 μSv/MBq
OD Small Intestine: 22.60 μSv/MBq
OD Spleen: 31.80 μSv/MBq
OD Stomach Wall: 12.70 μSv/MBq
OD Testes: 7.63 μSv/MBq
OD Thymus: 7.52 μSv/MBq
OD Thyroid: 10.10 μSv/MBq
OD Total Body: 9.13 μSv/MBq
OD ULI Wall: 25.60 μSv/MBq
OD Urinary Bladder Wall: 55.70 μSv/MBq
OD Uterus: 13.00 μSv/MBq
ED Contr. Adrenals (scaled to human): 0.09 μSv/MBq
ED Contr. Brain (scaled to human): 0.13 μSv/MBq
ED Contr. Breasts (scaled to human): 0.74 μSv/MBq
ED Contr. Gallbladder Wall (scaled to human): 0.26 μSv/MBq
ED Contr. Heart Wall (scaled to human): 0.09 μSv/MBq
ED Contr. Kidneys (scaled to human): 0.23 μSv/MBq
ED Contr. LLI Wall (scaled to human): 0.83 μSv/MBq
ED Contr. Liver (scaled to human): 1.04 μSv/MBq
ED Contr. Lungs (scaled to human): 1.30 μSv/MBq
ED Contr. Muscle (scaled to human): 0.07 μSv/MBq
ED Contr. Osteogenic Cells (scaled to human): 0.14 μSv/MBq
ED Contr. Ovaries (scaled to human): 0.95 μSv/MBq
ED Contr. Pancreas (scaled to human): 0.21 μSv/MBq
ED Contr. Red Marrow (scaled to human): 1.53 μSv/MBq
ED Contr. Skin (scaled to human): 0.06 μSv/MBq
ED Contr. Small Intestine (scaled to human): 0.20 μSv/MBq
ED Contr. Spleen (scaled to human): 0.27 μSv/MBq
ED Contr. Stomach Wall (scaled to human): 1.52 μSv/MBq
ED Contr. Testes (scaled to human): 0.00 μSv/MBq
ED Contr. Thymus (scaled to human): 0.06 μSv/MBq
ED Contr. Thyroid (scaled to human): 0.41 μSv/MBq
ED Contr. Total Body (scaled to human): 0.00 μSv/MBq
ED Contr. ULI Wall (scaled to human): 1.54 μSv/MBq
ED Contr. Urinary Bladder Wall (scaled to human): 2.23 μSv/MBq
ED Contr. Uterus (scaled to human): 0.11 μSv/MBq
ED ICRP 60 (scaled to human): 15.2 μSv/MBq
ED (scaled to human): 14.0 μSv/MBq
ED (scaled to human, listed as (R)-(+)-[^18F]Fluspidine): 14.0 μSv/MBq

FCC[C@@H]1OC2(CCN(Cc3ccccc3)CC2)c2ccccc21 [(S)-(−)-[^18F]fluspidine]
OD Adrenals: 10.50 μSv/MBq
OD Brain: 10.10 μSv/MBq
OD Breasts: 5.93 μSv/MBq
OD Gallbladder Wall: 25.60 μSv/MBq
OD Heart Wall: 9.85 μSv/MBq
OD Kidneys: 37.60 μSv/MBq
OD LLI Wall: 14.00 μSv/MBq
OD Liver: 25.00 μSv/MBq
OD Lungs: 10.40 μSv/MBq
OD Muscle: 7.57 μSv/MBq
OD Osteogenic Cells: 12.70 μSv/MBq
OD Ovaries: 11.50 μSv/MBq
OD Pancreas: 10.90 μSv/MBq
OD Red Marrow: 10.80 μSv/MBq
OD Skin: 5.61 μSv/MBq
OD Small Intestine: 23.10 μSv/MBq
OD Spleen: 26.10 μSv/MBq
OD Stomach Wall: 10.50 μSv/MBq
OD Testes: 7.46 μSv/MBq
OD Thymus: 7.19 μSv/MBq
OD Thyroid: 7.61 μSv/MBq
OD Total Body: 8.68 μSv/MBq
OD ULI Wall: 20.50 μSv/MBq
OD Urinary Bladder Wall: 58.00 μSv/MBq
OD Uterus: 12.80 μSv/MBq
ED Contr. Adrenals (scaled to human): 0.09 μSv/MBq
ED Contr. Brain (scaled to human): 0.10 μSv/MBq
ED Contr. Breasts (scaled to human): 0.71 μSv/MBq
ED Contr. Gallbladder Wall (scaled to human): 0.22 μSv/MBq
ED Contr. Heart Wall (scaled to human): 0.08 μSv/MBq
ED Contr. Kidneys (scaled to human): 0.32 μSv/MBq
ED Contr. LLI Wall (scaled to human): 0.84 μSv/MBq
ED Contr. Liver (scaled to human): 1.00 μSv/MBq
ED Contr. Lungs (scaled to human): 1.25 μSv/MBq
ED Contr. Muscle (scaled to human): 0.07 μSv/MBq
ED Contr. Osteogenic Cells (scaled to human): 0.13 μSv/MBq
ED Contr. Ovaries (scaled to human): 0.92 μSv/MBq
ED Contr. Pancreas (scaled to human): 0.09 μSv/MBq
ED Contr. Red Marrow (scaled to human): 1.30 μSv/MBq
ED Contr. Skin (scaled to human): 0.06 μSv/MBq
ED Contr. Small Intestine (scaled to human): 0.20 μSv/MBq
ED Contr. Spleen (scaled to human): 0.22 μSv/MBq
ED Contr. Stomach Wall (scaled to human): 1.26 μSv/MBq
ED Contr. Testes (scaled to human): 0.00 μSv/MBq
ED Contr. Thymus (scaled to human): 0.06 μSv/MBq
ED Contr. Thyroid (scaled to human): 0.30 μSv/MBq
ED Contr. Total Body (scaled to human): 0.00 μSv/MBq
ED Contr. ULI Wall (scaled to human): 1.23 μSv/MBq
ED Contr. Urinary Bladder Wall (scaled to human): 2.32 μSv/MBq
ED Contr. Uterus (scaled to human): 0.11 μSv/MBq
ED ICRP 60 (scaled to human): 14.8 μSv/MBq
ED (scaled to human): 12.9 ± 0.4 μSv/MBq and 12.9 μSv/MBq
ED (scaled to human, listed as (S)-(−)-[^18F]Fluspidine): 12.9 μSv/MBq
